Consider six compounds from patent publication EP0273199A2, “Uses of 3,4-diphenyl piperidine derivatives or medicines, 3,4-diphenyl piperidine derivatives, and process for their preparation” (LABORATOIRES HOECHST S.A., priority 1986, dated 1988).

Test [1] relates to Maus. The experiment in a line: Tail suspension test. Conditions: for minimal effective dose: ip. The format is in vivo. From the text:
Schwanzaufhängungstest an der Maus wie von Stéru u.a. beschrieben (Psychopharmacology 85, 367-370, 1985).
Die Substanzen werden intraperitoneal 30 Minuten vor dem Test verabreicht und die Tiese isoliert (10 Mäuse pro Dosis).
Man bewertet die Dauer der Unbeweglichkeit, ausgedrückt in Sekunden über die 6 Minuten des Tests. Man untersucht auf eine Verkürzung dieser Unbeweglichkeitszeit.

The subject of the next test is Motoraktivität. Put plainly: Actimetry (motor activity, photocell actimeter). The format is in vivo, Maus. Conditions: for Motilität: i.p., direction of change; for minimal effective dose: ip, read-out: Erste wirksame Dosis Motilität; for Aktimetrie: mouse, direction of change of motor activity. From the text: Die Motoraktivität wird mittels Photozellenaktimetern bestimmt (Boissier und Simon, Arch. Int. Pharmacodyn. 1965, 158, 212-221).
Die Mäuse (10 oder ein Vielfaches von 10 pro Gruppe) werden unmittelbar nach i.p. Verabreichung der zu untersuchenden Verbindungen in das Aktimeter eingesetzt. Die Motoraktivität wird danach bis zur 60. Minute gemessen. De Zähler werden nach 30 Minuten abgelesen und dann auf 0 zurückgestellt und im Verlauf von 30 Minuten alle 10 Minuten abgelesen.
Die Beweglichkeit der mit den verschiedenen Verbindungen behandelten Tiere wird mit derjenigen einer destilliertes Wasser erhaltenden Kontrollgruppe verglichen.
Die eine psychostimulierende Aktivität besitzenden Produkte verursachen eine Zunahme der Beweglichkeit.

The subject of test [2] is durch Reserpin induzierten Hypothermie. Put plainly: Antireserpine activity (reserpine-induced hypothermia). The format is in vivo, Maus. Conditions: ip. Here is the method: Zur Zeit 0 erhalten die Mäuse intraperitoneal Reserpin (2,5 mg/kg).
4 Stunden danach, wenn die Hypothermie genügend stark erscheint (30 bis 33°C), verabreicht man die verschiedenen zu untersuchenden Verbindungen i.p. oder p.o. Alle 30 Minuten über einen Zeitraum von 2 Stunden mißt man die Rektaltemperatur mit einer auf konstante Tiefe eingeführten, ein Thermoelement tragenden Sonde. Die Rektaltemperatur der mit verschiedenen erfindungsgemäßen Verbindungen behandelten Tiere wird mit der Temperatur einer Kontrollgruppe verglichen, die destilliertes Wasser auf die gleiche Weise wie die untersuchten Verbindungen erhält.
Die Akinesie (fehlende Bewegungen) und Ptose (Öffnungsgrad des Augenlids von 0 bis 4 nach Rubin u.a 1957) werden ebenfalls alle 30 Minuten über einen Zeitraum von 2 Stunden bewertet.
Die eine antidepressive Aktivität besitzenden Produkte wirken der durch Reserpin induzierten Hypothermie entgegen. Für jede Dosis der verabreichten Verbindung berechnet man die prozentuale Hemmung der Hypothermie.

In test [3] the test system is Apomorphin 1 mg.kg^-1 s.c. The experiment in a line: Apomorphine 1 mg/kg s.c. antagonism (no method given). The format is in vivo. The settings on record: ip, Tabelle Ib; read-out: Erste wirksame Dosis Apomorphin 1 mg.kg^-1 s.c.
The subject of another test is Toxizität des Yohimbins. Put plainly: Potentiation of yohimbine toxicity. The format is in vivo, Maus. Conditions: for minimal effective dose: ip. Here is the method:
Wirkung auf die Toxizität des Yohimbins
Zur Zeit 0 erhalten die Mäuse entweder destilliertes Wasser oder verschiedene zu untersuchende Verbindungen i.p. 30 Minuten danach verabreicht man ihnen subkutan eine infratoxische Dosis von 25 mg/kg Yohimbinchlorhydrat.
Die Mortalität wird jede Stunde über einen Zeitraum von 4 Stunden verfolgt und dann nach 24 Stunden notiert.
Die eine antidepressive Aktivität besitzenden Produkte verursachen eine Potenzierung der Toxizität des Yohimbins.

In test [4] the test system is Maus. Put plainly: Behavioural despair test (Porsolt forced swimming). Conditions: mouse, 4 mg/kg i.p. The format is in vivo. From the text: Test auf verzweifeltes Verhalten, wie von Porsolt u.a. (Arch. Int, Pharmacodyn. Ther. 229, 327 - 336, 1977) beschrieben.
Die Verbindungen werden intraperetoneal 30 Minuten vor dem Test verabreicht, und die Tiere werden vor dem erzwungenen Schwimmtest isoliert gehalten. Man bewertet die Dauer der Unbeweglichkeitsperioden in Sekunden ausgedrückt, die von der 2. bis zur 6. Minute nach dem Einsetzen des Tieres in Wasser gezählt werden.

A further test deals with Apomorphin 16 mg/kg. The experiment in a line: Antiapomorphine activity (apomorphine 16 mg/kg s.c., hypothermia). The format is in vivo, Maus. How it is done: Zur Zeit 0 nach Ausgleich der Reaktaltemperaturen werden die Mäuse (6 pro Gruppe) in deren Beobachtung gestattende Einzelkäfige (11 x 3,5 x 4 cm) eingeetzt. 30 Minuten nach i.p. bzw. p.o. Verabreichung der Testsubstanz erhalten sie Apomorphin subkutan in einer Dosis von 16 mg/kg. Die Rektaltemperatur wird 30 Minuten nach dem Apomorphin gemessen. Die Kontrolltiere erhalten destilliertes Wasser statt der zu untersuchenden Verbindungen. Die bei diesen Kontrolltieren, die 16 mg/kg Apomorphin erhalten haben, beobachtete Hypothermie liegt im Durchschnitt bei 33°C. Für jede Verbindungsdosis berechnet man die prozentuale Hemmung der Hypothermie.

The subject of test [5] is durch Oxotremorin induzierten Hypothermie. The experiment in a line: Antioxotremorine activity (oxotremorine-induced hypothermia). The format is in vivo, Maus. The settings on record: ip, read-out: Erste wirksame Dosis Oxotremorin. Here is the method: Nach Ausgleich der Rektaltemperaturen erhalten Mäuse (6 pro Gruppe) entweder destillietes Wasser oder die verschiedenen zu untersuchenden Verbindungen i.p.
30 Minuten danach verabreicht man intraperitoneal Oxotremorin in einer Dosis von 0,5 mg/kg.
Die Mäuse werden dan beobachtet: Tremor wird je nach der Intensität von 0 bis 3 bewertet, und die Akinesie wird alle 10 Minuten über einen Zeitraum von 30 Minuten auf Vorliegen oder Fehlen bestimmt.
Außerdem beobachtet man 2 Stunden lang das Erscheinen peripherer Symptome (Tränen, Darmentleerung). Die Rektaltemperatur wird alle 30 Minuten über eine Zeitraum von 2 Stunden nach der Verabreichung des Oxotremorins gemessen.
Die eine antidepressive Aktivität besitzenden Produkte wirken der durch Oxotremorin induzierten Hypothermie entgegen.
Für jede Dosis der Verbindung berechnet man die prozentuale Hemmung der Hypothermie.

The next test concerns stereotypen Bewegungen. The experiment in a line: Search for stereotyped movements. The format is in vivo, Ratte. Conditions: rat. From the text: Suche nach stereotypen Bewegungen an der Ratte
Unmittelbar nach i.p. oder p.o. Verabreichung der zu unteruchenden Verbindungen werden die Tiere (6 Ratten pro Gruppe) in 20 x 10 x 10 cm große, mit einem Edelstahldeckel mit Löchern von 1 cm Durchmesser versehene Einzelkäfige aus durchsichtigem Kunststoff eingesetzt. Die stereotypen Bewegungen (Bewegungen der Mundhöhle, Schnüffeln, Lecken oder Kauen) werden nach der von Simon und Chermat (J. Pharmacol. Paris, 1972, 3, 235-238) beschriebenen Methode alle 10 Minuten von 0 bis 3 bewertet, bis sie bei allen Tieren verschwunden sind.

Setting [6] is: Tabelle Ib, read-out: Erste wirksame Dosis T.S.T. Maus.
Setting [7] is: Tabelle Ib, read-out: Erste wirksame Dosis Reserpin.
The mark [8] stands for this setting: ip, Tabelle Ib, read-out: Erste wirksame Dosis Apomorphin 16 mg.kg^-1 s.c.
The mark [9] stands for this setting: Mus musculus, read-out: Erste wirksame Dosis Reserpin, mouse, i.p., only or lowest value of the cell.
[10] abbreviates: Mus musculus, ip, read-out: Erste wirksame Dosis Apomorphin 16 mg/kg, mouse, i.p., only or lowest value of the cell.

Where two headings read alike, the source gives them in different places. Where only a bound is given, the exact number is not on record here.

Consider `CN1Cc2c(N)cccc2C(c2ccccc2)C1` (stereo not drawn) [NOMIFENSIN], for which the minimal effective dose was 0.25 mg/kg in the test on Maus [1] (setting [6]); 4 mg/kg in the test on Motoraktivität (Tabelle Ib); 8 mg/kg in test [2] (setting [7]); 2 mg/kg in [3]; 4 mg/kg in the test with Toxizität des Yohimbins (Tabelle Ib, read-out: Erste wirksame Dosis Yohimbin); 2 mg/kg with Apomorphin 16 mg/kg (setting [8]). The minimal effective dose in test [5] worked out at 16 mg/kg. Moreover, the “% Antagonismus” value in the test with Maus [1] (mouse, 0,06 mg/kg i.p.) was determined as 35%; in the test with Maus [1] (mouse, 0,25 mg/kg i.p.) it was 55%; with Maus [1] (mouse, 1 mg/kg i.p.), 66%; in the test on Maus [1] (mouse, 4 mg/kg i.p.), 80%; with Maus [4], 39%. In addition, the “Dauer der Unbeweglichkeit” value is 59 ± 9 Sekunden in the test with Maus [1] (mouse, 0,06 mg/kg i.p.); 41 ± 6 p < 0,01 Sekunden in the test on Maus [1] (mouse, 0,25 mg/kg i.p.); 31 ± 6 p < 0,01 Sekunden with Maus [1] (mouse, 1 mg/kg i.p.); 18 ± 5 p < 0,001 Sekunden in the test on Maus [1] (mouse, 4 mg/kg i.p.); 120 ± 23 p < 0,001 Sekunden in the test on Maus [4] (30 min before test). In addition, the Motilität entry with Motoraktivität (Tabelle Ib) is “↗”.
As for `CN1CCN2c3ccccc3Cc3ccccc3C2C1` (stereo not drawn) [MIANSERIN, reference compound], the Motilität result with Motoraktivität (Tabelle Ib) is reported as “↘”. Moreover, the minimal effective dose was 32 mg/kg with Motoraktivität (Tabelle Ib); greater than 32 mg/kg in test [2] (setting [7]); 64 mg/kg in test [3]; 64 mg/kg in the test with Apomorphin 16 mg/kg (setting [8]); 32 mg/kg in [5] (Tabelle Ib).
Regarding `FC(F)(F)c1ccc([C@@H]2CCNC[C@H]2c2ccccc2)cc1` (racemic) [Beispiel 3, trans-3-Phenyl-4-(4-trifluormethylphenyl)-piperidin-chlorhydrat], the minimal effective dose is 4 mg/kg in the test on Maus [1] (setting [6]); no less than 4 mg/kg with Maus [1] (mouse, i.p., footnote of Tabelle 1, read-out: tail suspension test= positiv ab); 32 mg/kg in the test with Motoraktivität (Tabelle Ib); 1 mg/kg in [2] (setting [7]); 1 mg/kg in test [2] (mouse, i.p., only or lowest value of the cell, read-out: Erste wirksame Dosis Reserpin); 2 mg/kg in [3]. Moreover, the minimal effective dose with Apomorphin 16 mg/kg (setting [8]) turned out to be 2 mg/kg; in the test with Apomorphin 16 mg/kg (ip, mouse, i.p., only or lowest value of the cell, read-out: Erste wirksame Dosis Apomorphin 16 mg/kg) it was 2 mg/kg; with Apomorphin 16 mg/kg (mouse, further value in the same cell, route not stated (lowest = i.p.; p.o. also tested), read-out: Erste wirksame Dosis Apomorphin 16 mg/kg), 4 mg/kg; in [5] (Tabelle Ib), 8 mg/kg; in test [5] (mouse, i.p.), 8 mg/kg. Further, the Motilität result in the test on Motoraktivität (Tabelle Ib) is “↘”. The Aktimetrie entry with Motoraktivität is on record as “↘”. Besides, the “Stereotype Bewegung” value in the test on stereotypen Bewegungen (64 mg/kg i.p.) is recorded as 0(64i.p.).
On to `c1ccc([C@@H]2CCNC[C@H]2c2ccccc2)cc1` (relative stereo) [21 (Base), trans-3,4-Diphenylpiperidin], for which the minimal effective dose (in test [2] (setting [9]); with Apomorphin 16 mg/kg (setting [10]); in test [5] (Mus musculus)) was 4 mg/kg throughout. Besides, in the test on Toxizität des Yohimbins (mouse, i.p., only or lowest value of the cell), the “Erste wirksame Dosis Yohimbin” value was determined as 4 mg/kg. In addition, the “Stereotype Bewegung” value in the test with stereotypen Bewegungen (64 mg/kg p.o.) was 0(64p.o.).
In the case of `Clc1ccc(C2CCNCC2c2ccccc2)cc1` (stereo not drawn) [Beispiel 12, cis-4-(4-Chlorphenyl)-3-phenylpiperidin], the Aktimetrie entry with Motoraktivität was “↘ =”. Moreover, the minimal effective dose in test [2] (setting [9]) came out at 4 mg/kg; in the test on Toxizität des Yohimbins (Mus musculus, read-out: Erste wirksame Dosis Yohimbin, mouse, i.p., only or lowest value of the cell), 16 mg/kg; in the test with Apomorphin 16 mg/kg (setting [10]), 2 mg/kg; in [5] (Mus musculus), 16 mg/kg. In the test with stereotypen Bewegungen (64 mg/kg i.p.), the “Stereotype Bewegung” value is recorded as 0(64i.p.).
On to `CCOc1ccccc1OCC1CNCCO1` (stereo not drawn) [VILOXAZIN, reference compound], for which the minimal effective dose in the test with Maus [1] (read-out: Erste wirksame Dosis T.S.T. Maus) is 8 mg/kg; with Motoraktivität, 16 mg/kg; in test [2] (read-out: Erste wirksame Dosis Reserpin, i.p., Tabelle Ib) it was 4 mg/kg; in test [3] it was greater than 32 mg/kg; in the test with Toxizität des Yohimbins (read-out: Erste wirksame Dosis Yohimbin, i.p., Tabelle Ib) it was 8 mg/kg; in the test with Apomorphin 16 mg/kg (ip, read-out: Erste wirksame Dosis Apomorphin 16 mg.kg^-1 s.c., i.p., Tabelle Ib) it was 8 mg/kg. The minimal effective dose in test [5] is 4 mg/kg. Besides, in the test on Motoraktivität (Tabelle Ib), the Motilität entry is reported as “↘”.
